Measurements published in PubChem BioAssay AID330 (DTP/NCI, 2004).
“And” between values parts separate entries of the source, which are not always exact repeats. Equal values may be shown once. Toxic doses and inconclusive results are not listed. How the source made its calls: active means survival T/C of 150% or more; inactive means T/C below 125% in these data.

Tested on: P388 leukemia ip, CD2F1 mice, survival T/C
Assay: NCI In Vivo Anticancer Drug Screen. Data for tumor model P388 Leukemia (intraperitoneal) in CD2F1 (CDF1) mice
Details: endpoint: median survival time, higher = longer survival
In short: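 Mice carrying the transplanted tumor received test compound or vehicle. Survival was recorded in each group, and the value is the treated-group measurement divided by that of the vehicle-treated control group.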

[1] = dose: 60.0 mg/kg/injection, schedule: Q01DX005 (ip), vehicle: Klucel (hydroxypropylcellulose) (HPC)
[2] = dose: 50.0 mg/kg/injection, schedule: Q01DX009 (ip), vehicle: saline with Tween-80
[3] = dose: 100.0 mg/kg/injection, schedule: Q01DX009 (ip), vehicle: saline with Tween-80
[4] = dose: 200.0 mg/kg/injection, schedule: Q01DX009 (ip), vehicle: saline with Tween-80
[5] = dose: 100.0 mg/kg/injection, schedule: Q04DX003 (ip), vehicle: saline with Tween-80
[6] = dose: 200.0 mg/kg/injection, schedule: Q04DX003 (ip), vehicle: saline with Tween-80
[7] = dose: 400.0 mg/kg/injection, schedule: Q04DX003 (ip), vehicle: saline with Tween-80
[8] = dose: 50.0 mg/kg/injection, schedule: Q01DX005 (ip), vehicle: saline with Tween-80
[9] = dose: 100.0 mg/kg/injection, schedule: Q01DX005 (ip), vehicle: saline with Tween-80
[10] = dose: 25.0 mg/kg/injection, schedule: Q01DX005 (ip), vehicle: saline
[11] = dose: 50.0 mg/kg/injection, schedule: Q01DX005 (ip), vehicle: saline

Measured: T/C

Cc1cccnc1Br
inactive: dose: 25.0 mg/kg/injection, schedule: Q01DX009 (ip), vehicle: water 96 % of control | dose: 200.0 mg/kg/injection, schedule: Q01DX009 (ip), vehicle: water 89 % of control

CC(NS(=O)(=O)N1CCOC1=O)c1ccccc1 (centres undefined)
inactive: [1] 104 % of control | dose: 120.0 mg/kg/injection, schedule: Q01DX005 (ip), vehicle: Klucel (hydroxypropylcellulose) (HPC) 107 % of control | dose: 240.0 mg/kg/injection, schedule: Q01DX005 (ip), vehicle: Klucel (hydroxypropylcellulose) (HPC) 104 % of control

CS(=O)(=O)OC1COC(c2ccccc2)OC1C1OC(c2ccccc2)OCC1OS(C)(=O)=O (centres undefined)
inactive: dose: 100.0 mg/kg/injection, schedule: Q01DX001 (ip), vehicle: Klucel (hydroxypropylcellulose) (HPC) 92 % of control | dose: 200.0 mg/kg/injection, schedule: Q01DX001 (ip), vehicle: Klucel (hydroxypropylcellulose) (HPC) 101 % of control | dose: 400.0 mg/kg/injection, schedule: Q01DX001 (ip), vehicle: Klucel (hydroxypropylcellulose) (HPC) 99 % of control

COc1ccc2c(c1OC)C(C(C)=O)N1CCc3cc4c(cc3C1=C2)OCO4 (centres undefined)
inactive: dose: 0.63 mg/kg/injection, schedule: Q01DX009 (ip), vehicle: distilled water + Tween-80 106 % of control | dose: 1.25 mg/kg/injection, schedule: Q01DX009 (ip), vehicle: distilled water + Tween-80 101 % of control | dose: 2.5 mg/kg/injection, schedule: Q01DX009 (ip), vehicle: distilled water + Tween-80 99 % of control | dose: 5.0 mg/kg/injection, schedule: Q01DX009 (ip), vehicle: distilled water + Tween-80 96 % of control | dose: 10.0 mg/kg/injection, schedule: Q01DX009 (ip), vehicle: distilled water + Tween-80 101 % of control | dose: 20.0 mg/kg/injection, schedule: Q01DX009 (ip), vehicle: distilled water + Tween-80 101 % of control

C=CCOC(CCC)OCC=C
inactive: dose: 50.0 mg/kg/injection, schedule: Q01DX009 (ip), vehicle: Klucel (hydroxypropylcellulose) (HPC) 97 % of control | dose: 100.0 mg/kg/injection, schedule: Q01DX009 (ip), vehicle: Klucel (hydroxypropylcellulose) (HPC) 97 % of control

O=C1CN(c2ccccc2)C(=O)CN1/N=C/c1ccc(Cl)cc1
inactive: [2] 91 % of control | [3] 99 % of control | [4] 102 % of control

Cc1cc(NC(=O)SCCOC(=O)COc2ccc(Cl)cc2)ccc1Cl
inactive: [5] 100 % of control | [6] 95 % of control | [7] 90 % of control

O=C(O)c1ccc(=O)oc1
inactive: dose: 12.5 mg/kg/injection, schedule: Q01DX009 (ip), vehicle: saline with Tween-80 98 % of control | dose: 25.0 mg/kg/injection, schedule: Q01DX009 (ip), vehicle: saline with Tween-80 94 % of control | [2] 116 % of control | [3] 116 % of control

CC(=O)Nc1nc(N)nc(N)n1
inactive: [2] 106 % of control | [3] 103 % of control | [4] 88 % of control

O=c1c2ccccc2nc(-c2ccc(Cl)cc2)n1O
inactive: [8] 92 % of control | [9] 88 % of control

CC(=O)Nc1scc[n+]1Cc1ccccc1
inactive: dose: 50.0 mg/kg/injection, schedule: Q01DX005 (ip), vehicle: Klucel (hydroxypropylcellulose) (HPC) 100 % of control | dose: 100.0 mg/kg/injection, schedule: Q01DX005 (ip), vehicle: Klucel (hydroxypropylcellulose) (HPC) 100 % of control | dose: 200.0 mg/kg/injection, schedule: Q01DX005 (ip), vehicle: Klucel (hydroxypropylcellulose) (HPC) 91 % of control

COC(=O)/C(C(C)=O)=C1\C(=O)OCC1(C)C
inactive: dose: 100.0 mg/kg/injection, schedule: Q04DX003 (ip), vehicle: saline 102 % of control | dose: 200.0 mg/kg/injection, schedule: Q04DX003 (ip), vehicle: saline 105 % of control | dose: 400.0 mg/kg/injection, schedule: Q04DX003 (ip), vehicle: saline 100 % of control

Cc1cc(=O)[nH]c2cc(NN)ccc12
inactive: dose: 60.0 mg/kg/injection, schedule: Q01DX005 (ip), vehicle: saline with Tween-80 96 % of control | dose: 120.0 mg/kg/injection, schedule: Q01DX005 (ip), vehicle: saline with Tween-80 92 % of control | dose: 240.0 mg/kg/injection, schedule: Q01DX005 (ip), vehicle: saline with Tween-80 95 % of control

C/C=C1/CN2CCC34c5ccccc5N(C)C23C(OC(C)=O)CC1C4(CO)C(=O)OC (centres undefined)
inactive: dose: 2.25 mg/kg/injection, schedule: Q01DX005 (ip), vehicle: saline + Tween-80 + alcohol 120 % of control | dose: 4.5 mg/kg/injection, schedule: Q01DX005 (ip), vehicle: saline + Tween-80 + alcohol 103 % of control | dose: 9.0 mg/kg/injection, schedule: Q01DX005 (ip), vehicle: saline + Tween-80 + alcohol 106 % of control | dose: 18.0 mg/kg/injection, schedule: Q01DX005 (ip), vehicle: saline + Tween-80 + alcohol 104 % of control

Cc1n[nH]c(=O)c2ccccc12
inactive: [5] 91 % of control | [6] 99 % of control | [7] 107 % of control

C(=Nc1ccncc1)c1c[nH]c2ccccc12
inactive: dose: 3.12 mg/kg/injection, schedule: Q01DX001 (ip), vehicle: Klucel (hydroxypropylcellulose) (HPC) 104 % of control | dose: 6.25 mg/kg/injection, schedule: Q01DX001 (ip), vehicle: Klucel (hydroxypropylcellulose) (HPC) 98 % of control | dose: 12.5 mg/kg/injection, schedule: Q01DX001 (ip), vehicle: Klucel (hydroxypropylcellulose) (HPC) 101 % of control and 104 % of control

CCCCCCCN(CCCCCCC)CC(O)c1c(Br)c2cc(Br)ccc2c2ccc(Br)cc12 (centres undefined)
inactive: dose: 1.25 mg/kg/injection, schedule: Q01DX009 (ip), vehicle: saline with Tween-80 105 % of control | dose: 2.5 mg/kg/injection, schedule: Q01DX009 (ip), vehicle: saline with Tween-80 106 % of control | dose: 5.0 mg/kg/injection, schedule: Q01DX009 (ip), vehicle: saline with Tween-80 100 % of control

C1CCNCC1.CC(=O)[C-](C(C)=O)c1ccccc1.CC(=O)[C-](C(C)=O)c1ccccc1.CC(=O)[C-](C(C)=O)c1ccccc1.CC(=O)[C-](C(C)=O)c1ccccc1.[Eu+3]
inactive: dose: 100.0 mg/kg/injection, schedule: Q04DX002 (ip), vehicle: Klucel (hydroxypropylcellulose) (HPC) 86 % of control | dose: 400.0 mg/kg/injection, schedule: Q04DX002 (ip), vehicle: Klucel (hydroxypropylcellulose) (HPC) 97 % of control

CC(=O)C[n+]1ccccc1Oc1ccccc1
inactive: [10] 93 % of control | [11] 96 % of control

CCCCCCCCCCCCCCCC[n+]1ccc(C(N)=O)cc1
inactive: dose: 3.0 mg/kg/injection, schedule: Q01DX009 (ip), vehicle: saline with Tween-80 109 % of control | dose: 6.0 mg/kg/injection, schedule: Q01DX009 (ip), vehicle: saline with Tween-80 118 % of control | dose: 12.0 mg/kg/injection, schedule: Q01DX009 (ip), vehicle: saline with Tween-80 109 % of control

CCN(CC)CCCNC(=O)C(c1ccccc1)c1ccccc1
inactive: dose: 12.5 mg/kg/injection, schedule: Q01DX005 (ip), vehicle: saline 100 % of control | [10] 115 % of control | [11] 100 % of control and 92 % of control

O=C(NC1(Sc2ccccc2)CC1)c1ccc(Cl)cc1
inactive: dose: 15.0 mg/kg/injection, schedule: Q01DX005 (ip), vehicle: Klucel (hydroxypropylcellulose) (HPC) 98 % of control | dose: 30.0 mg/kg/injection, schedule: Q01DX005 (ip), vehicle: Klucel (hydroxypropylcellulose) (HPC) 88 % of control | [1] 88 % of control

CC1OCC(O)C(C(O)C(=O)CN(Cc2ccccc2)Cc2ccccc2)O1 (centres undefined)
inactive: [8] 99 % of control | [9] 99 % of control | dose: 200.0 mg/kg/injection, schedule: Q01DX005 (ip), vehicle: saline with Tween-80 91 % of control
